From patent US7763733B2, “Ritonavir analogous compound useful as retroviral protease inhibitor, preparation of the ritonavir analogous compound and pharmaceutical composition for the ritonavir analogous compound” (Cristalia Produtos Quimicos Farmaceuticos Ltda., priority 2004, dated 2010)
pIC50: −log10 of the molar value.

Legend:
HIV = conditions: anti-HIV activity test, values as described in U.S. Pat. No. 5,541,206; cited from earlier work
HIV pNL4-3 (subtype B) = experiment: Antiviral activity in HIV-infected MT-4 cells (MTT cellular viability); type: cell-based; conditions: MOI 0.002, MTT staining at the sixth day, ritonavir as internal control
Method: The anti-HIV activity of the compound of the present invention was determined using MT-4 cells, a lymphocytic cell line established in culture, CD4^+, and expressing HIV-1 […] co-receptors. The cells were infected using a plate having 96 wells containing 10^4 cells/well. The cells were infected with MOI (Multiplicity Of Infection) of 0.002 (NIH requirement=0.001 to 0.01). The drugs were initially diluted in dimethyl sulfoxide (DMSO) to a final concentration of 20 mM and later in RPMI 1640 base medium to a concentration of 200 μM. […] The culture medium utilized for this procedure was RPMI 1640 including 10% bovine fetal serum, antibiotics […]/penicillin and L-glutamine. The most concentrated well has a final concentration of 10.000 μM being followed by the indicated dilutions: 2.0 μM; 0.400 μM; 0.0800 μM; 0.016 μM; 0.0032 μM; 0.00064 μM and 0.000128 μM. The ninth well is considered as the infection control, without adding the drug. Each line having […] infected wells is produced in triplicate for later statistics analyses. […]
The infection test is maintained in an incubator having 5% of CO2 at 37° C. and monitored daily using phase optical microscopy method to verify appearance of syncytia (multinuclear cells). […]

anti-HIV activity (EC50, FIG. 2) in comparison with ritonavir and analogs (HIV pNL4-3 (subtype B))	SMILES	pIC50 (HIV)
–	CC(C)c1nc(CN(C)C(=O)NC(C(=O)NC(Cc2ccccc2)CC(O)C(Cc2ccccc2)NC(=O)OCc2cncs2)C(C)C)cs1 [ritonavir, (2S,3S,5S)-5-[N—[N—[[N-methyl-N-[(2-isopropyl-4-thiazolyl)methyl]amino]carbonyl]vanilyl]amino-2-[N [(5-thiazolyl)methoxycarbonyl]amino-1,6-diphenyl-3-hydroxyhexane]	7.40 to 7.60
–	CC(C)c1nc(CN(C)C(=O)NC(C(=O)NC(Cc2ccccc2)CC(O)C(Cc2ccccc2)NC(=O)OCc2cnc(C(C)C)s2)C(C)C)cs1 (stereo not shown) [example 45C]	7.40 to 7.44
surprisingly superior activity	CC(C)c1nc(CN(C)C(=O)N[C@H](C(=O)N[C@@H](Cc2ccccc2)C[C@H](O)[C@H](Cc2ccccc2)NC(=O)[C@@H](NC(=O)N(C)Cc2csc(C(C)C)n2)C(C)C)C(C)C)cs1 [example 1C, (2S,3S,5S)-2,5-bis-[N—[N—[[N-methyl-N-[(2-isopropyl-4-thiazolyl)methyl]amino]carbonyl]valinyl]amino]-1,6-diphenyl-3-hydroxyhexane]	–
–	CC(C)Cc1nc(CN(C)C(=O)N[C@H](C(=O)N[C@@H](Cc2ccccc2)C[C@H](O)[C@H](Cc2ccccc2)NC(=O)OCc2cncs2)C(C)C)cs1 [example 59G]	6.89 to 6.96
